Measured values as given in the supplement of paper PMC13380429.

Assays:
Settings in all cases: 72 h
Caco-2 [1] = experiment: cell viability relative to DMSO; higher = less toxic
Calu-3 [2] = experiment: as above
HepG2 [3] = experiment: as above
U2OS [4] = experiment: as above
Vero E6 [5] = experiment: as above
Caco-2 [6] = experiment: relative viability EC50 (midpoint between 100% and the lowest measured viability); higher = less toxic
Calu-3 [7] = experiment: as above
HepG2 [8] = experiment: as above
U2OS [9] = experiment: as above
Vero E6 [10] = experiment: as above
Caco-2 [11] = experiment: drug sensitivity score (DSS) for viability; higher = more toxic; extreme values may be limits of the assay
Calu-3 [12] = experiment: as above
HepG2 [13] = experiment: as above
U2OS [14] = experiment: as above
Vero E6 [15] = experiment: as above

Structure (SMILES)	cell viability (Caco-2 [1]; 1 nM) [%]	cell viability (Caco-2 [1]; 10 nM) [%]	cell viability (Caco-2 [1]; 100 nM) [%]	cell viability (Caco-2 [1]; 1000 nM) [%]	cell viability (Caco-2 [1]; 10000 nM) [%]	cell viability (Calu-3 [2]; 1 nM) [%]	cell viability (Calu-3 [2]; 10 nM) [%]	cell viability (Calu-3 [2]; 100 nM) [%]	cell viability (Calu-3 [2]; 1000 nM) [%]	cell viability (Calu-3 [2]; 10000 nM) [%]	cell viability (HepG2 [3]; 1 nM) [%]	cell viability (HepG2 [3]; 10 nM) [%]	cell viability (HepG2 [3]; 100 nM) [%]	cell viability (HepG2 [3]; 1000 nM) [%]	cell viability (HepG2 [3]; 10000 nM) [%]	cell viability (U2OS [4]; 1 nM) [%]	cell viability (U2OS [4]; 10 nM) [%]	cell viability (U2OS [4]; 100 nM) [%]	cell viability (U2OS [4]; 1000 nM) [%]	cell viability (U2OS [4]; 10000 nM) [%]	cell viability (Vero E6 [5]; 1 nM) [%]	cell viability (Vero E6 [5]; 10 nM) [%]	cell viability (Vero E6 [5]; 100 nM) [%]	cell viability (Vero E6 [5]; 1000 nM) [%]	cell viability (Vero E6 [5]; 10000 nM) [%]	relative viability EC50 (Caco-2 [6]) [µM]	relative viability EC50 (Calu-3 [7]) [µM]	relative viability EC50 (HepG2 [8]) [µM]	relative viability EC50 (U2OS [9]) [µM]	relative viability EC50 (Vero E6 [10]) [µM]	drug sensitivity score (Caco-2 [11])	drug sensitivity score (Calu-3 [12])	drug sensitivity score (HepG2 [13])	drug sensitivity score (U2OS [14])	drug sensitivity score (Vero E6 [15])
O=C(O)CNC(=O)C(CS)Cc1ccccc1 (stereo not given) [thiorphan]	107	99	86.2	102	110	103	99.5	98.6	95.5	114	94.2	90.9	99.7	92.1	95.7	99.4	103	98.7	98.7	96.9	107	95	94.3	101	104	> 10	> 10	> 10	> 10	> 10	0	0	0	0	0
O=C(Cn1c(=O)sc2ccc(Cl)cc21)N1CCN(CCO)CC1 [tiaramide]	112	91.4	96.7	96.3	101	92.2	101	90.6	92.4	105	94.9	109	108	88.8	89.3	101	101	98.7	100	98.7	107	95.2	94.3	101	93.4	> 10	> 10	> 10	> 10	> 10	0	0	0.2	0	0
Cc1ccccc1C(=O)Nc1ccc(C(=O)N2CCCC(O)c3cc(Cl)ccc32)c(C)c1 (stereo not given) [tolvaptan]	100	96.4	90.1	89.8	94.1	91	86.3	91.7	78.8	102	99.7	93	96.4	106	110	94.2	92.1	103	97.4	96.7	99.4	100	93.4	98.3	104	> 10	> 10	> 10	> 10	> 10	0.1	0.5	0	0	0
Cn1c(=O)cc(N2CCC[C@@H](N)C2)n(Cc2cc(F)ccc2C#N)c1=O [trelagliptin]	101	98.9	92.3	104	95.6	98.9	110	105	102	107	96.7	99.1	88.3	96.5	88.8	104	95.6	96.6	95.1	106	102	98.4	99.2	103	98.2	> 10	> 10	> 10	> 10	> 10	0	0	0	0	0
COc1cc(C(=O)NC2CCCNC2)cc(OC)c1OC (stereo not given) [troxipide]	99	103	98.4	97.4	99.6	97.5	91.3	94	106	97.8	103	109	97.4	103	104	106	96.3	102	98.8	101	103	109	101	102	98.4	> 10	> 10	> 10	> 10	> 10	0	0	0	0	0
Clc1ccc(Nc2nnc(Cc3ccncc3)c3ccccc23)cc1 [vatalanib]	98.6	99.3	102	94.7	84.5	95.9	89.8	97.5	102	90.3	101	92.4	107	102	83	103	100	100	101	92.7	95.9	93.8	89	88.8	90	> 10	> 10	> 10	> 10	> 10	0.7	0	0.3	0	0.4
Clc1cccc(Cl)c1CSc1nnc(-c2cnccn2)s1 [yoda-1]	100	95.3	94.7	92.6	79.6	98.8	91.1	97	98.8	91	84.7	100	97.6	102	91	101	98.9	90.6	92	93	97.4	100	94.2	96	94	> 10	> 10	> 10	> 10	> 10	0.9	0	0	0	0
c1ccc(C(O[C@@H]2CCCN(CCc3ccc4c(c3)OCO4)C2)c2ccccc2)cc1 [zamifenacin]	94.8	91.7	98.6	98.3	92.5	104	99.2	97	102	92.2	92.6	107	92.7	108	92.1	104	99.6	98.8	98.3	96	96.9	102	96.7	98.3	94.9	> 10	> 10	> 10	> 10	> 10	0	0	0	0	0
